{"source": "BigSolDB 2.1"}
{"smiles": "O=c1ccc2ccccc2o1", "values": [{"measurement": "solubility (mole fraction)", "setting": "in cyclohexane, 283.15 K", "value": 0.00162}, {"measurement": "solubility (mole fraction)", "setting": "in cyclohexane, 288.15 K", "value": 0.00236}, {"measurement": "solubility (mole fraction)", "setting": "in cyclohexane, 293.15 K", "value": 0.00321}, {"measurement": "solubility (mole fraction)", "setting": "in cyclohexane, 298.15 K", "value": 0.00428}, {"measurement": "solubility (mole fraction)", "setting": "in cyclohexane, 303.15 K", "value": 0.00607}, {"measurement": "solubility (mole fraction)", "setting": "in cyclohexane, 308.15 K", "value": 0.00824}, {"measurement": "solubility (mole fraction)", "setting": "in cyclohexane, 313.15 K", "value": 0.0111}, {"measurement": "solubility (mole fraction)", "setting": "in cyclohexane, 318.15 K", "value": 0.0144}, {"measurement": "solubility (mole fraction)", "setting": "in ethanol, 278.15 K", "value": 0.0071}, {"measurement": "solubility (mole fraction)", "setting": "in ethanol, 283.15 K", "value": 0.011}, {"measurement": "solubility (mole fraction)", "setting": "in ethanol, 288.15 K", "value": 0.0205}, {"measurement": "solubility (mole fraction)", "setting": "in ethanol, 293.15 K", "value": 0.0331}, {"measurement": "solubility (mole fraction)", "setting": "in ethanol, 298.15 K", "value": 0.0533}, {"measurement": "solubility (mole fraction)", "setting": "in ethanol, 303.15 K", "value": 0.0869}, {"measurement": "solubility (mole fraction)", "setting": "in ethanol, 308.15 K", "value": 0.138}, {"measurement": "solubility (mole fraction)", "setting": "in ethanol, 313.15 K", "value": 0.222}, {"measurement": "solubility (mole fraction)", "setting": "in ethanol, 318.15 K", "value": 0.357}, {"measurement": "solubility (mole fraction)", "setting": "in isopropanol, 278.15 K", "value": 0.00371}, {"measurement": "solubility (mole fraction)", "setting": "in isopropanol, 283.15 K", "value": 0.00604}, {"measurement": "solubility (mole fraction)", "setting": "in isopropanol, 288.15 K", "value": 0.0108}, {"measurement": "solubility (mole fraction)", "setting": "in isopropanol, 293.15 K", "value": 0.0204}, {"measurement": "solubility (mole fraction)", "setting": "in isopropanol, 298.15 K", "value": 0.0351}, {"measurement": "solubility (mole fraction)", "setting": "in isopropanol, 303.15 K", "value": 0.0604}, {"measurement": "solubility (mole fraction)", "setting": "in isopropanol, 308.15 K", "value": 0.101}, {"measurement": "solubility (mole fraction)", "setting": "in isopropanol, 313.15 K", "value": 0.171}, {"measurement": "solubility (mole fraction)", "setting": "in isopropanol, 318.15 K", "value": 0.282}, {"measurement": "solubility (mole fraction)", "setting": "in methanol, 278.15 K", "value": 0.012}, {"measurement": "solubility (mole fraction)", "setting": "in methanol, 283.15 K", "value": 0.0182}, {"measurement": "solubility (mole fraction)", "setting": "in methanol, 288.15 K", "value": 0.0303}, {"measurement": "solubility (mole fraction)", "setting": "in methanol, 293.15 K", "value": 0.05}, {"measurement": "solubility (mole fraction)", "setting": "in methanol, 298.15 K", "value": 0.0802}, {"measurement": "solubility (mole fraction)", "setting": "in methanol, 303.15 K", "value": 0.122}, {"measurement": "solubility (mole fraction)", "setting": "in methanol, 308.15 K", "value": 0.199}, {"measurement": "solubility (mole fraction)", "setting": "in methanol, 313.15 K", "value": 0.32}, {"measurement": "solubility (mole fraction)", "setting": "in methanol, 318.15 K", "value": 0.484}, {"measurement": "solubility (mole fraction)", "setting": "in n-hexane, 278.15 K", "value": 0.000862}, {"measurement": "solubility (mole fraction)", "setting": "in n-hexane, 283.15 K", "value": 0.00118}, {"measurement": "solubility (mole fraction)", "setting": "in n-hexane, 288.15 K", "value": 0.00169}, {"measurement": "solubility (mole fraction)", "setting": "in n-hexane, 293.15 K", "value": 0.0024}, {"measurement": "solubility (mole fraction)", "setting": "in n-hexane, 298.15 K", "value": 0.00319}, {"measurement": "solubility (mole fraction)", "setting": "in n-hexane, 303.15 K", "value": 0.00421}, {"measurement": "solubility (mole fraction)", "setting": "in n-hexane, 308.15 K", "value": 0.00574}, {"measurement": "solubility (mole fraction)", "setting": "in n-hexane, 313.15 K", "value": 0.00746}, {"measurement": "solubility (mole fraction)", "setting": "in n-hexane, 318.15 K", "value": 0.00962}, {"measurement": "solubility (mole fraction)", "setting": "in n-propanol, 278.15 K", "value": 0.00521}, {"measurement": "solubility (mole fraction)", "setting": "in n-propanol, 283.15 K", "value": 0.00952}, {"measurement": "solubility (mole fraction)", "setting": "in n-propanol, 288.15 K", "value": 0.0172}, {"measurement": "solubility (mole fraction)", "setting": "in n-propanol, 293.15 K", "value": 0.0282}, {"measurement": "solubility (mole fraction)", "setting": "in n-propanol, 298.15 K", "value": 0.0469}, {"measurement": "solubility (mole fraction)", "setting": "in n-propanol, 303.15 K", "value": 0.0781}, {"measurement": "solubility (mole fraction)", "setting": "in n-propanol, 308.15 K", "value": 0.124}, {"measurement": "solubility (mole fraction)", "setting": "in n-propanol, 313.15 K", "value": 0.202}, {"measurement": "solubility (mole fraction)", "setting": "in n-propanol, 318.15 K", "value": 0.33}]}
